{
  "source": "patent US20260151391A1",
  "about": "“TREATMENT OF MITOCHONDRIAL DISEASES WITH sGC STIMULATORS” (Tisento Therapeutics Inc., priority 2022, published 2026)",
  "key": {"sGC enzyme": {"tested_on": "sGC enzyme", "experiment": "cGMP GloSensor cell-based assay, 384-well format", "set-up": "species or system human", "settings": "HEK293 GloSensor 40F cGMP cells, 10 μM DETA-NONOate; geometrical mean; I-20 and I-14: average of free acid and sodium salt; read-out: Glo EC50", "text": "Human embryonic kidney cells (HEK293) cells expressing GloSensor™ 40F cGMP (Part No: CS182801, Promega) were used to evaluate the activity of test compounds. The luminescent biosensors (engineered luciferase) that were incorporated into these cells detect cGMP formed by the compounds stimulating the sGC enzyme and emit luminescence.\ncGMP GloSensor cells were maintained in Dulbecco's Modification of Eagle's Medium (DMEM) supplemented with fetal bovine serum (FBS, 10% final) and hygromycine (200 ug/ml). The day before assay, cells were plated in DMEM with 10% FBS in a 50 μL volume at a density of 1.5×10^4 cells/well in a poly-D-lysine coated 384-well flat white-bottom plate (Corning Cat No 35661). […] Test compounds and Diethylenetriamine NONOate (DETA-NONOate) was diluted to 3 mM (20×) in serum-free CO2 independent medium and serially diluted at 4× dilutions to create 5× dose curve from which 10 ul was added to the wells (x μM concentration for test compound solution and 10 μM concentration for DETA-NONOate solution; wherein x is one of the following final concentrations: 30 μM, 7.5 μM, 1.9 μM, 469 nM, 117 nM, 29.3 nM, 7.3 nM, 1.83 nM, 0.46 nM, 0.11 nM, 0.03 nM) For the kinetics studies, luminescense was measured right away for 0.2 sec per well with Envision (Perkin Elmer). […]\nConcentration response data were analyzed using a 4-parameter fit (log (agonist) vs. response-variable slope). […]"}, "[1]": {"tested_on": "normotensive Sprague Dawley rats", "experiment": "Blood pressure effects in normotensive rats following acute oral dose", "assay_type": "in vivo, rat", "settings": "for Peak ΔVMAP (mm Hg): sodium salt in Milli-Q water, vehicle-adjusted MAP, 10-minute bins; for Time at Peak: time of peak ΔVMAP", "method": "Male, normotensive Sprague Dawley rats were purchased from Charles River Laboratories. These rats have indwelling femoral artery catheters installed. Animals were harnessed to a tether system and attached to pressure transducers to monitor cardiovascular (CV) parameters, specifically mean arterial pressure (MAP) and heart rate (HR). Animals were acclimated to the system overnight and baseline CV parameters collected. The conscious, freely moving rats were then administered a single oral dose of the Compound I-14 (doses generated from the sodium salt of Compound I-14) in Milli-Q water at 1, 3, 10 and 30 mg/kg. A blood sample was collected from each animal through the catheter line at pre-dose and 2 hours post-dose for compound concentration quantification. Hemodynamic measures were recorded for ten hours post-dose. Fifty-four male rats were used for these studies and they were ordered to be received at a body weight range of 250-275 grams. They were single housed under controlled conditions of temperature (21±1° C.), relative humidity (36±1%) and placed in a 12-hr light-dark cycle (lights on at 6:00 AM and off at 6:00 PM) room at SmartLabs vivarium (21 Erie Street, Cambridge, MA) under protocol MIL-110. Animals were allowed ad libitum access to chow (LabDiet Prolab Isopro RMH 3000, St. Louis, MO) and water. Two sets of studies were carried out. For the first set of studies Compound I-14 was formulated at 0.3 and 1.0 mg/ml in Milli-Q water and frozen at −20° C. For the second set of studies, the sodium salt of Compound I-14 was weighed at Cyclerion Therapeutics and reconstituted at SmartLabs to provide 0.1, 0.3, 1.0 and 3.0 mg/ml solutions of Compound I-14 in Milli-Q water. Formulations prepared were thawed less than 4 hours before dosing and stored at room temperature or were made less than 2 hours before dosing and stored at room temperature.\nStudies were conducted over 6 separate sessions. Animals were initially used within 3 days of receipt and if catheters remained patent, reused once after 6-7 days of washout. No animals were used more than twice.\nThis study utilized ADInstruments LabChart (v8) to collect hemodynamic data from conscious, freely moving rats tethered to a blood pressure transducer (Harvard Apparatus cat #APT300). Following an overnight acclimation to the tether and pressure transducer, animals were dosed following a 1-hr baseline recording period. Animals were administered a single oral (P.O.) dose of the sodium salt form of Compound I-14 or vehicle at a dose volume of 10 mL/kg. Data collection was continued for 10 hours post-dose.\nADInstruments LabChart (v8) was used to monitor and export hemodynamic data. Blood pressure and heart rate were continuously monitored, and data were collected at 1000 data points per second then averaged into 10-minute bins for analysis. Change from baseline MAP (ABMAP) and HR (ABHR) were calculated using the pre-dose baseline averaged over the 1-hr period prior to dosing using Microsoft Excel for Microsoft 365. This 10-minute bin dataset was used to determine peak ΔVMAP, time peak ΔVMAP, peak ΔVHR and time of peak ΔVHR. The dataset was further consolidated into 1-hr bins for the MAP and HR figures and the analysis of ΔBMAP, ΔBMAP, and ΔBHR. The definitions of these terms/abbreviations are summarized below:\nStatistical analyses were performed in Graphpad Prism (v8). Significance, as compared to vehicle-treated rats, for ΔBMAP and ΔBHR data was determined by 2-way repeated measures ANOVA followed by a Dunnett's multiple comparisons test, if there was a missing data point, a mixed-effect analysis was utilized. Vehicle-adjusted MAP (ΔVMAP) was calculated by subtracting ΔBMAP of the vehicle group from the ΔBMAP of each dose group at each timepoint. Vehicle-adjusted HR (ΔVHR) was calculated in a similar manner to ΔVMAP.\nSignificance of AOC data were determined by one-way ANOVA followed by a Dunnett's multiple comparisons test as compared to vehicle. […]"}},
  "note": "pEC50: −log10 of the molar value.",
  "data": [
    {"smiles": "Cc1cc(F)c(Cc2nc(-c3ncc(F)c(O)n3)cn3ccnc23)cc1F", "note": "[Compound I-14, 5-fluoro-2-(8-(2,5-difluoro-4-methylbenzyl)imidazo[1,2-a]pyrazin-6-yl)pyrimidin-4-ol]", "values": [
      {"measurement": "pEC50", "setting": "sGC enzyme", "value": "≥ 7.00"},
      {"measurement": "Peak ΔVMAP (mm Hg)", "setting": "[1]; 1 mg/kg single oral dose", "value": "−6.2", "unit": "mm Hg"},
      {"measurement": "Peak ΔVMAP (mm Hg)", "setting": "[1]; 3 mg/kg single oral dose", "value": "−10.1", "unit": "mm Hg"},
      {"measurement": "Peak ΔVMAP (mm Hg)", "setting": "[1]; 10 mg/kg single oral dose", "value": "−22.3", "unit": "mm Hg"},
      {"measurement": "Peak ΔVMAP (mm Hg)", "setting": "[1]; 30 mg/kg single oral dose", "value": "−24.4", "unit": "mm Hg"},
      {"measurement": "no effect dose on ΔBMAP", "setting": "[1]; single oral dose, main effect analysis, simple effects analysis and AOC", "value": 1, "unit": "mg/kg"},
      {"measurement": "Time at Peak", "setting": "[1]; 1 mg/kg single oral dose", "value": 90, "unit": "min"},
      {"measurement": "Time at Peak", "setting": "[1]; 3 mg/kg single oral dose", "value": 70, "unit": "min"},
      {"measurement": "Time at Peak", "setting": "[1]; 10 mg/kg single oral dose", "value": 30, "unit": "min"},
      {"measurement": "Time at Peak", "setting": "[1]; 30 mg/kg single oral dose", "value": 30, "unit": "min"}
    ]}
  ]
}
